Assay results from patent publication US20050222134A1, “Crystalline forms of 5, 11-dihydro-11-ethyl-5-methyl-8-{2-{(1-oxido-4-quinolinyl)oxy}ethyl}-6H-dipyrido[3,2-b:2',3'-e] [1,4]diazepin-6-one” (Boehringer Ingelheim International GmbH, priority 2004, published 2005).

Legend:
[1] = Biological testing of plasma levels of crystalline forms; format: in vivo; conditions: compared with other crystalline forms of the drug
Text: (§1) We have further discovered that under proper conditions several anhydrous polymorphs of 5,11-dihydro-11-ethyl-5-methyl-8-{2-{(1-oxido-4-quinolinyl)oxy} ethyl}-6H-dipyrido[3,2-b:2′,3′-e][1,4]diazepin-6-one may be formed. […] Thus, the invention further includes anhydrous Form III of 5,11-dihydro-11-ethyl-5-methyl-8-{2-{(1-oxido-4-quinolinyl)oxy}ethyl}-6H-dipyrido[3,2-b:2′,3′-e][1,4]diazepin-6-one and methods for its manufacture.

[2] = Phase stability of crystalline forms at ambient / storage conditions; format: physicochemical
Text: A first aspect of the present invention comprises the discovery of a dihydrate crystalline form of 5,11-dihydro-11-ethyl-5-methyl-8-{2-{(1-oxido-4-quinolinyl)oxy}ethyl}-6H-dipyrido[3,2-b:2′,3′-e][1,4]diazepin-6-one. […] The invention also comprises methods for making this dihydrate crystalline form.
as §1

[3] = Solubility experiments used to determine the phase diagram of the crystalline forms; format: physicochemical; conditions: 25° C.; for water content of ethanol solution in contact with which the form is thermodynamically favored over the other forms: ethanol solutions saturated with the compound, compared with the dihydrate, anhydrous Form I and Form III
Protocol: Solubility experiments were used to determine the unique phase diagram shown in FIG. 5 for the various forms of 5,11-dihydro-11-ethyl-5-methyl-8-{2-{(1-oxido-4-quinolinyl)oxy}ethyl}-6H-dipyrido[3,2-b:2′,3′-e][1,4]diazepin-6-one. […] Additionally, anhydrous Form III is thermodynamically favored over the dihydrate and anhydrous Form I at 25° C. when in contact with ethanol solutions containing<˜2.7±0.5 wt % water.

| melting point [°C] | phase stability ([2]; some tested ambient conditions) | water content of ethanol solution in contact with which the form is thermodynamically favored over the other forms [3] [wt % water] | thermodynamic or kinetic preference on storage ([2]; temperatures and humidities most likely encountered on storage of drug substance or drug product, compared with the trihydrate) | water content of ethanol solution in contact with which the form is thermodynamically favored over the other forms ([3]; dihydrate) [wt % water] | SMILES | plasma levels [1] | thermodynamic preference between crystalline forms (phase diagram) [3] |
| --- | --- | --- | --- | --- | --- | --- | --- |
| 199 | – | – | – | – | CCN1c2ncc(CCOc3cc[n+]([O-])c4ccccc34)cc2C(=O)N(C)c2cccnc21 (hydrate or solvate) [dihydrate, 5,11-dihydro-11-ethyl-5-methyl-8-{2-{(1-oxido-4-quinolinyl)oxy}ethyl}-6H-dipyrido[3,2-b:2′,3′-e][1,4]diazepin-6-one dihydrate] | – | – |
| 198.2 | demonstrated phase stability | < 2.7±0.5 | – | – | CCN1c2ncc(CCOc3cc[n+]([O-])c4ccccc34)cc2C(=O)N(C)c2cccnc21 [anhydrous Form III, 5,11-dihydro-11-ethyl-5-methyl-8-{2-{(1-oxido-4-quinolinyl)oxy}ethyl}-6H-dipyrido[3,2-b:2′,3′-e][1,4]diazepin-6-one Anhydrous Form III] | higher plasma levels than are attainable using other crystalline forms | thermodynamically preferred over anhydrous Form I |
| – | – | – | thermodynamically or kinetically favored | > 2.7 | CCN1c2ncc(CCOc3cc[n+]([O-])c4ccccc34)cc2C(=O)N(C)c2cccnc21 [dihydrate, 5,11-dihydro-11-ethyl-5-methyl-8-{2-{(1-oxido-4-quinolinyl)oxy}ethyl}-6H-dipyrido[3,2-b:2′,3′-e][1,4]diazepin-6-one dihydrate] | – | – |
